What was measured:
[1] = system: Zymoseptoria tritici; assay: Leaf blotch of wheat (SEPTTR) disease control on wheat seedlings; format: in vivo; design: key to SEPTTR 1DP, HV activity at 100 ppm (% control rating) / SEPTTR 3DC, HV activity at 100 ppm (% control rating) / SEPTTR disease control, 1DP / SEPTTR disease control, 3DC / SEPTTR 1DP disease control rating, HV activity / SEPTTR 3DC disease control rating, HV activity / SEPTTR 3DC, LV activity at 125.1 g/H (% Control rating) / SEPTTR 1DP, LV activity at 125.1 g/H (% Control rating) / SEPTTR 1DP disease control rating, LV activity at 125.1 g/H / SEPTTR 3DC disease control rating, LV activity at 125.1 g/H / SEPTTR 3DC disease control rating, HV activity at 100 ppm / SEPTTR 1DP disease control rating, HV activity at 100 ppm / HV activity at 100 ppm SEPTTR 3DC (disease control rating) / HV activity at 100 ppm SEPTTR 1DP (disease control rating) / LV activity at 125.1 g/H SEPTTR 1DP (disease control rating) / LV activity at 125.1 g/H SEPTTR 3DC (disease control rating): A: > 80; B: ≤ 80; C: Not Tested; D: No Activity Observed in the Reported Assay; settings: for HV activity at 100 ppm SEPTTR 1DP (disease control rating) / HV activity at 100 ppm SEPTTR 3DC (disease control rating): HV application; for HV activity at 100 ppm SEPTTR 1DP (disease control rating) / HV activity at 100 ppm SEPTTR 3DC (disease control rating) / SEPTTR 1DP disease control rating, HV activity / SEPTTR 3DC disease control rating, HV activity: wheat leaf blotch; for SEPTTR 1DP disease control rating, HV activity / SEPTTR 3DC disease control rating, HV activity: HV application at 100 ppm; for SEPTTR 1DP disease control rating, LV activity at 125.1 g/H / SEPTTR 1DP disease control rating, HV activity at 100 ppm: 1 day protectant; for SEPTTR 3DC disease control rating, LV activity at 125.1 g/H / SEPTTR 3DC disease control rating, HV activity at 100 ppm: 3 day curative; for SEPTTR 1DP disease control rating, HV activity at 100 ppm / SEPTTR 3DC disease control rating, HV activity at 100 ppm: high volume application
[2] = system: Puccinia triticina; assay: Wheat brown rust (PUCCRT) disease control on wheat seedlings; format: in vivo; design: key to PUCCRT 3DC, HV activity at 100 ppm (% control rating) / PUCCRT disease control, 3DC / PUCCRT 1DP disease control rating, HV activity / PUCCRT 3DC disease control rating, HV activity / PUCCRT 3DC, LV activity at 125.1 g/H (% Control rating) / PUCCRT 1DP, LV activity at 125.1 g/H (% Control rating) / PUCCRT 3DC disease control rating, LV activity at 125.1 g/H / PUCCRT 1DP disease control rating, LV activity at 125.1 g/H / PUCCRT 3DC disease control rating, HV activity at 100 ppm / PUCCRT 1DP disease control rating, HV activity at 100 ppm / HV activity at 100 ppm PUCCRT 3DC (disease control rating) / LV activity at 125.1 g/H PUCCRT 1DP (disease control rating) / LV activity at 125.1 g/H PUCCRT 3DC (disease control rating): A: > 80; B: ≤ 80; C: Not Tested; D: No Activity Observed in the Reported Assay; settings: for HV activity at 100 ppm PUCCRT 1DP (disease control rating) / HV activity at 100 ppm PUCCRT 3DC (disease control rating): HV application; for HV activity at 100 ppm PUCCRT 1DP (disease control rating) / HV activity at 100 ppm PUCCRT 3DC (disease control rating) / PUCCRT 1DP disease control rating, HV activity / PUCCRT 3DC disease control rating, HV activity: wheat brown rust; for PUCCRT 1DP disease control rating, HV activity / PUCCRT 3DC disease control rating, HV activity: HV application at 100 ppm; for PUCCRT 1DP disease control rating, LV activity at 125.1 g/H / PUCCRT 1DP disease control rating, HV activity at 100 ppm: 1 day protectant; for PUCCRT 3DC disease control rating, LV activity at 125.1 g/H / PUCCRT 3DC disease control rating, HV activity at 100 ppm: 3 day curative; for PUCCRT 1DP disease control rating, HV activity at 100 ppm / PUCCRT 3DC disease control rating, HV activity at 100 ppm: high volume application
[3] = low volume application, 125.1 g/H, 1 Day Protectant
[4] = low volume application, 125.1 g/H, 3 Day Curative
[5] = low volume application, 125.1 g/H

CC(C)C[C@@H](Oc1cccc(Cl)c1)[C@H](C)OC(=O)[C@H](C)NC(=O)c1ncccc1O [Cmpd 1037]
HV activity at 100 ppm SEPTTR 1DP (disease control rating) ([1]; 1 Day Protectant): A (> 80)
HV activity at 100 ppm SEPTTR 3DC (disease control rating) ([1]; 3 Day Curative): B (≤ 80)
HV activity at 100 ppm PUCCRT 1DP (disease control rating) ([2]; 1 Day Protectant): A (> 80)
HV activity at 100 ppm PUCCRT 3DC (disease control rating) ([2]; 3 Day Curative): A (> 80)

C=CCC(Oc1ccc(Cl)cc1Cl)C(C)OC(=O)C(C)NC(=O)c1nccc(OC)c1O (stereo not drawn) [Cmpd 439]
SEPTTR 1DP disease control rating, HV activity ([1]; 1 Day Protectant): B (≤ 80)
SEPTTR 3DC disease control rating, HV activity ([1]; 3 Day Curative): D
PUCCRT 1DP disease control rating, HV activity ([2]; 1 Day Protectant): A (> 80)
PUCCRT 3DC disease control rating, HV activity ([2]; 3 Day Curative): A (> 80)

COc1ccnc(C(=O)NC(C)C(=O)OC(C)COC(=O)C(C)C)c1OCOC(C)=O (stereo not drawn) [Cmpd 530]
SEPTTR 1DP, LV activity at 125.1 g/H (% Control rating) [1, 3]: B (≤ 80)
SEPTTR 3DC, LV activity at 125.1 g/H (% Control rating) [1, 4]: B (≤ 80)
PUCCRT 1DP, LV activity at 125.1 g/H (% Control rating) [2, 3]: D
PUCCRT 3DC, LV activity at 125.1 g/H (% Control rating) [2, 4]: D

CCC(CC)C(Oc1cccc(F)c1)C(C)OC(=O)C(C)NC(=O)c1nccc(OC)c1OC(C)=O (stereo not drawn) [Cmpd 673]
SEPTTR 1DP disease control rating, LV activity at 125.1 g/H [1, 5]: B (≤ 80)
SEPTTR 3DC disease control rating, LV activity at 125.1 g/H [1, 5]: A (> 80)
PUCCRT 1DP disease control rating, LV activity at 125.1 g/H [2, 5]: A (> 80)
PUCCRT 3DC disease control rating, LV activity at 125.1 g/H [2, 5]: B (≤ 80)

COc1ccnc(C(=O)NC(C)C(=O)OC(C)C(Oc2cccc3ccccc23)C(C)C)c1OC(C)=O (stereo not drawn) [Cmpd 859]
SEPTTR 1DP disease control rating, LV activity at 125.1 g/H [1, 5]: B (≤ 80)
SEPTTR 3DC disease control rating, LV activity at 125.1 g/H [1, 5]: D
PUCCRT 1DP disease control rating, LV activity at 125.1 g/H [2, 5]: A (> 80)
PUCCRT 3DC disease control rating, LV activity at 125.1 g/H [2, 5]: B (≤ 80)

CCC(CC)[C@@H](Oc1ccc(-c2ccccc2)cc1)[C@H](C)OC(=O)[C@@H](NC(=O)c1nccc(OC)c1O)C(C)C [Cmpd 414]
SEPTTR 1DP disease control rating, HV activity ([1]; 1 Day Protectant): A (> 80)
SEPTTR 3DC disease control rating, HV activity ([1]; 3 Day Curative): B (≤ 80)
PUCCRT 1DP disease control rating, HV activity ([2]; 1 Day Protectant): B (≤ 80)
PUCCRT 3DC disease control rating, HV activity ([2]; 3 Day Curative): B (≤ 80)

COc1ccnc(C(=O)NC(C)C(=O)OC(C)C(Oc2ccccc2)c2ccc(-c3ccccc3)cc2)c1O (stereo not drawn) [Cmpd 833]
SEPTTR 1DP disease control rating, HV activity at 100 ppm [1]: A (> 80)
SEPTTR 3DC disease control rating, HV activity at 100 ppm [1]: B (≤ 80)
PUCCRT 1DP disease control rating, HV activity at 100 ppm [2]: A (> 80)
PUCCRT 3DC disease control rating, HV activity at 100 ppm [2]: B (≤ 80)

CCC(CC)C(Oc1cccc(F)c1)C(C)OC(=O)C(CC(C)C)NC(=O)c1nccc(OC)c1O (stereo not drawn) [Cmpd 426]
SEPTTR 1DP disease control rating, HV activity ([1]; 1 Day Protectant): D
SEPTTR 3DC disease control rating, HV activity ([1]; 3 Day Curative): D
PUCCRT 1DP disease control rating, HV activity ([2]; 1 Day Protectant): B (≤ 80)
PUCCRT 3DC disease control rating, HV activity ([2]; 3 Day Curative): D

CC[C@H](OC(=O)[C@H](C)NC(=O)c1nccc(OC)c1O)[C@H](Oc1ccccc1)C(C)C [Cmpd 815]
SEPTTR 1DP disease control rating, HV activity at 100 ppm [1]: B (≤ 80)
SEPTTR 3DC disease control rating, HV activity at 100 ppm [1]: D
PUCCRT 1DP disease control rating, HV activity at 100 ppm [2]: A (> 80)
PUCCRT 3DC disease control rating, HV activity at 100 ppm [2]: A (> 80)

CCC(CC)[C@@H](Oc1ccccc1)[C@H](C)OC(=O)CNC(=O)c1nccc(OC)c1O [Cmpd 307]
SEPTTR 1DP disease control rating, HV activity ([1]; 1 Day Protectant): D
SEPTTR 3DC disease control rating, HV activity ([1]; 3 Day Curative): A (> 80)
PUCCRT 1DP disease control rating, HV activity ([2]; 1 Day Protectant): A (> 80)
PUCCRT 3DC disease control rating, HV activity ([2]; 3 Day Curative): A (> 80)

CCOc1ccnc(C(=O)N[C@@H](C)C(=O)O[C@@H](C)[C@@H](CC(C)C)Oc2cccc(F)c2)c1O [Cmpd 1039]
HV activity at 100 ppm SEPTTR 1DP (disease control rating) ([1]; 1 Day Protectant): D
HV activity at 100 ppm SEPTTR 3DC (disease control rating) ([1]; 3 Day Curative): B (≤ 80)
HV activity at 100 ppm PUCCRT 1DP (disease control rating) ([2]; 1 Day Protectant): A (> 80)
HV activity at 100 ppm PUCCRT 3DC (disease control rating) ([2]; 3 Day Curative): A (> 80)

COc1ccnc(C(=O)N[C@@H](C)C(=O)O[C@@H](C)[C@H](OCC2CC2)C2CCCCC2)c1OCOC(C)=O [Cmpd 881]
SEPTTR 1DP disease control rating, LV activity at 125.1 g/H [1, 5]: B (≤ 80)
SEPTTR 3DC disease control rating, LV activity at 125.1 g/H [1, 5]: B (≤ 80)
PUCCRT 1DP disease control rating, LV activity at 125.1 g/H [2, 5]: A (> 80)
PUCCRT 3DC disease control rating, LV activity at 125.1 g/H [2, 5]: A (> 80)

COc1ccnc(C(=O)N[C@@H](C)C(=O)O[C@@H](C)[C@H](Oc2ccccc2)c2ccc(F)cc2)c1O [Cmpd 848]
SEPTTR 1DP disease control rating, HV activity at 100 ppm [1]: B (≤ 80)
SEPTTR 3DC disease control rating, HV activity at 100 ppm [1]: A (> 80)
PUCCRT 1DP disease control rating, HV activity at 100 ppm [2]: A (> 80)
PUCCRT 3DC disease control rating, HV activity at 100 ppm [2]: B (≤ 80)

COc1ccnc(C(=O)N[C@@H](C)C(=O)O[C@@H](C)[C@@H](Oc2cccc(C(F)(F)F)c2)C(C)C)c1OCOC(C)=O [Cmpd 853]
SEPTTR 1DP disease control rating, LV activity at 125.1 g/H [1, 5]: B (≤ 80)
SEPTTR 3DC disease control rating, LV activity at 125.1 g/H [1, 5]: A (> 80)
PUCCRT 1DP disease control rating, LV activity at 125.1 g/H [2, 5]: A (> 80)
PUCCRT 3DC disease control rating, LV activity at 125.1 g/H [2, 5]: A (> 80)

COc1ccnc(C(=O)N[C@@H](C)C(=O)O[C@@H](C)[C@@H](OCC(C)C)c2ccccc2)c1OCOC(C)=O [Cmpd 880]
SEPTTR 1DP disease control rating, LV activity at 125.1 g/H [1, 5]: B (≤ 80)
SEPTTR 3DC disease control rating, LV activity at 125.1 g/H [1, 5]: B (≤ 80)
PUCCRT 1DP disease control rating, LV activity at 125.1 g/H [2, 5]: A (> 80)
PUCCRT 3DC disease control rating, LV activity at 125.1 g/H [2, 5]: A (> 80)

COc1ccnc(C(=O)N[C@@H](C)C(=O)O[C@@H](C)[C@H](Oc2cccc(Cl)c2)C2CCCC2)c1O [Cmpd 841, (S)-(1R,2S)-1-(3-chlorophenoxy)-1-cyclopentylpropan-2-yl-2-(3-hydroxy-4-methoxypicolinamido)propanoate]
SEPTTR 1DP disease control rating, HV activity at 100 ppm [1]: A (> 80)
SEPTTR 3DC disease control rating, HV activity at 100 ppm [1]: A (> 80)
PUCCRT 1DP disease control rating, HV activity at 100 ppm [2]: A (> 80)
PUCCRT 3DC disease control rating, HV activity at 100 ppm [2]: A (> 80)

COc1ccnc(C(=O)NC(C)C(=O)OC(C)C(Oc2ccc(Cl)cc2Cl)c2ccccc2)c1O (stereo not drawn) [Cmpd 817]
SEPTTR 1DP disease control rating, HV activity at 100 ppm [1]: A (> 80)
SEPTTR 3DC disease control rating, HV activity at 100 ppm [1]: B (≤ 80)
PUCCRT 1DP disease control rating, HV activity at 100 ppm [2]: A (> 80)
PUCCRT 3DC disease control rating, HV activity at 100 ppm [2]: A (> 80)

CC[C@H](OC)[C@@H](Oc1ccc(Cl)cc1Cl)[C@H](C)OC(=O)[C@H](C)NC(=O)c1nccc(OC)c1O [Cmpd 402]
SEPTTR 1DP disease control rating, HV activity ([1]; 1 Day Protectant): B (≤ 80)
SEPTTR 3DC disease control rating, HV activity ([1]; 3 Day Curative): B (≤ 80)
PUCCRT 1DP disease control rating, HV activity ([2]; 1 Day Protectant): B (≤ 80)
PUCCRT 3DC disease control rating, HV activity ([2]; 3 Day Curative): B (≤ 80)

Source: patent US20180000085A1, “USE OF PICOLINAMIDE COMPOUNDS WITH FUNGICIDAL ACTIVITY” (DOW AGROSCIENCES LLC, priority 2014, published 2018)
